From patent US8802128B2, “Steroid-containing sustained release intraocular implants and related methods” (Allergan, Inc., priority 2006, dated 2014)

Assays:
[1] = Relative water solubility of the steroids; type: physicochemical
[2] = in vivo; cited from earlier work

Row | Structure (SMILES) | water solubility relative to beclomethasone dipropionate (times more soluble) [1] | eyes with increase in brown pigment in the iris [2]
1 | CC1(C)O[C@@H]2C[C@H]3[C@@H]4CCC5=CC(=O)C=C[C@]5(C)[C@@]4(F)[C@@H](O)C[C@]3(C)[C@]2(C(=O)CO)O1 [triamcinolone acetonide] | about 150 times | 
2 | CC(C)OC(=O)CCC/C=C\C[C@@H]1[C@@H](CC[C@@H](O)CCc2ccccc2)[C@H](O)C[C@@H]1O [latanoprost] |  | 5-15 % of human eyes
